Molecules are shown by their SMILES.

What all share (assay type): cell-based
For one experiment, the target named is T1, human TLR8 (Homo sapiens, UniProt Q9NR97).
T1 construct: host or cells: HEK-Blue cells
T1 sequence (Q9NR97 27-1041): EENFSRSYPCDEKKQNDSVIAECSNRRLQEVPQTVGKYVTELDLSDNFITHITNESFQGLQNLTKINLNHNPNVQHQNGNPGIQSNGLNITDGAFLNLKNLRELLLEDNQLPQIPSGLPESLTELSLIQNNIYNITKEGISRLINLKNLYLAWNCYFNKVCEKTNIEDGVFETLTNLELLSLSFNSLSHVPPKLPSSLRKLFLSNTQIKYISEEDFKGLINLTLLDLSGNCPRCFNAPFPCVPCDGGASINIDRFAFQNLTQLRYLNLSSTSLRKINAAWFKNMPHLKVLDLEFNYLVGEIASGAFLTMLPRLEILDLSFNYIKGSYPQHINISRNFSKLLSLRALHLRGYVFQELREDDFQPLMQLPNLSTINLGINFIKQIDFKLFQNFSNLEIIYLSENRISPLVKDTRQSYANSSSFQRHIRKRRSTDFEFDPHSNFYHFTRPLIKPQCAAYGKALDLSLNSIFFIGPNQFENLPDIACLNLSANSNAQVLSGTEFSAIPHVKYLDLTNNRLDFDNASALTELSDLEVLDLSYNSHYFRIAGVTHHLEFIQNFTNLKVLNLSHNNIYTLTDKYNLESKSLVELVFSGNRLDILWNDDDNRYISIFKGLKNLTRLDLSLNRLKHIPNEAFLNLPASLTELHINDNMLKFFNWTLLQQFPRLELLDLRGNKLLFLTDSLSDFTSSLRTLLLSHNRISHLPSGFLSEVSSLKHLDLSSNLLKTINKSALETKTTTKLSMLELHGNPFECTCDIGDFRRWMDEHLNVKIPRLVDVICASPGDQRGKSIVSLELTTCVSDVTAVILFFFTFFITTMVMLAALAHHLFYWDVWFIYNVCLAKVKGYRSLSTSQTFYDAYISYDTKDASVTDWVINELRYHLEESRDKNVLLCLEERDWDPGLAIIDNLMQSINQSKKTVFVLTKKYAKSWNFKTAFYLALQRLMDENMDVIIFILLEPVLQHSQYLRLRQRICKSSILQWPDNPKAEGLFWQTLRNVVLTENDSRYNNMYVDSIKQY
The experiment in a line: TLR8 inhibition reporter assay (HEK-Blue cells, SEAP reporter, R848 stimulation). Particulars: HEK-Blue cells overexpressing human TLR8, SEAP reporter, R848 15.9 μM. The procedure, abridged: (§1)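 SEAP readout after 22 h agonist exposure at 37 °C; final agonist levels were 7.5 μM gardiquimod (TLR7), 15.9 μM R848 (TLR8) and 5 nM ODN2006 (TLR9). Inhibitors, spanning 0.05 nM to 50 μM final, were applied 30 min beforehand.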
For orientation: Reporter assays use an easily measured gene product as a stand-in for the process of interest.

Another experiment concerns the target T2, human TLR9 (Homo sapiens, UniProt Q9NR96).
T2 construct: host or cells: HEK-Blue cells
T2 sequence (Q9NR96 26-1032): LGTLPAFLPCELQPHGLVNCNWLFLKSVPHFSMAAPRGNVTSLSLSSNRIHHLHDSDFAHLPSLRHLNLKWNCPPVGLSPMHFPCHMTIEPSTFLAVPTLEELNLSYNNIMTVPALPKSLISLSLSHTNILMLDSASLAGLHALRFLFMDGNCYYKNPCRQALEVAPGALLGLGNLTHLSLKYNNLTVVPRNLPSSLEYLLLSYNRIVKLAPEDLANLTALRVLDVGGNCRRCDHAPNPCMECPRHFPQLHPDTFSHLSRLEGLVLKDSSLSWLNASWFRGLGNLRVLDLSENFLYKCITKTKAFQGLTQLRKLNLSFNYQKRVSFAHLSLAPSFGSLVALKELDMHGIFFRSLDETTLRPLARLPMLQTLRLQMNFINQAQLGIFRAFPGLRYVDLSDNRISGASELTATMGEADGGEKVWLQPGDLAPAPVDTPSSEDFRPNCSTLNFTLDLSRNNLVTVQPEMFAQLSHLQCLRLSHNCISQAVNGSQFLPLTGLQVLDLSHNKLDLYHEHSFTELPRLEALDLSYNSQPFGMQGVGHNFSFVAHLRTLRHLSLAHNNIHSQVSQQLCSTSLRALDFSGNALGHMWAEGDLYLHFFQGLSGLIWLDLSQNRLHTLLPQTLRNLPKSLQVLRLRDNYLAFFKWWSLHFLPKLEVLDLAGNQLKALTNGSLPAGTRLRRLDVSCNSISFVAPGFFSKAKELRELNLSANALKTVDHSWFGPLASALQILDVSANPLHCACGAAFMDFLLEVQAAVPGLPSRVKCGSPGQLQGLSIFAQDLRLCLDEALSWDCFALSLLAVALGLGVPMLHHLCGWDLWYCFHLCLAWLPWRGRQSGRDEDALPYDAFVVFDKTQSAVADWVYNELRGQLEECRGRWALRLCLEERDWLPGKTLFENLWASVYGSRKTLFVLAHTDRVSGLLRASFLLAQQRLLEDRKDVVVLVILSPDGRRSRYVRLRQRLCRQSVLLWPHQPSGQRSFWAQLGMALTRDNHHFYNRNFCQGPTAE
Description: TLR9 inhibition reporter assay (HEK-Blue cells, SEAP reporter, ODN2006 stimulation). Particulars: HEK-Blue cells overexpressing human TLR9, SEAP reporter, ODN2006 5 nM. Summed up: as §1

Another experiment concerns the target T3, human TLR7 (Homo sapiens, UniProt Q9NYK1).
T3 construct: host or cells: HEK-Blue cells
T3 sequence (Q9NYK1 27-1049): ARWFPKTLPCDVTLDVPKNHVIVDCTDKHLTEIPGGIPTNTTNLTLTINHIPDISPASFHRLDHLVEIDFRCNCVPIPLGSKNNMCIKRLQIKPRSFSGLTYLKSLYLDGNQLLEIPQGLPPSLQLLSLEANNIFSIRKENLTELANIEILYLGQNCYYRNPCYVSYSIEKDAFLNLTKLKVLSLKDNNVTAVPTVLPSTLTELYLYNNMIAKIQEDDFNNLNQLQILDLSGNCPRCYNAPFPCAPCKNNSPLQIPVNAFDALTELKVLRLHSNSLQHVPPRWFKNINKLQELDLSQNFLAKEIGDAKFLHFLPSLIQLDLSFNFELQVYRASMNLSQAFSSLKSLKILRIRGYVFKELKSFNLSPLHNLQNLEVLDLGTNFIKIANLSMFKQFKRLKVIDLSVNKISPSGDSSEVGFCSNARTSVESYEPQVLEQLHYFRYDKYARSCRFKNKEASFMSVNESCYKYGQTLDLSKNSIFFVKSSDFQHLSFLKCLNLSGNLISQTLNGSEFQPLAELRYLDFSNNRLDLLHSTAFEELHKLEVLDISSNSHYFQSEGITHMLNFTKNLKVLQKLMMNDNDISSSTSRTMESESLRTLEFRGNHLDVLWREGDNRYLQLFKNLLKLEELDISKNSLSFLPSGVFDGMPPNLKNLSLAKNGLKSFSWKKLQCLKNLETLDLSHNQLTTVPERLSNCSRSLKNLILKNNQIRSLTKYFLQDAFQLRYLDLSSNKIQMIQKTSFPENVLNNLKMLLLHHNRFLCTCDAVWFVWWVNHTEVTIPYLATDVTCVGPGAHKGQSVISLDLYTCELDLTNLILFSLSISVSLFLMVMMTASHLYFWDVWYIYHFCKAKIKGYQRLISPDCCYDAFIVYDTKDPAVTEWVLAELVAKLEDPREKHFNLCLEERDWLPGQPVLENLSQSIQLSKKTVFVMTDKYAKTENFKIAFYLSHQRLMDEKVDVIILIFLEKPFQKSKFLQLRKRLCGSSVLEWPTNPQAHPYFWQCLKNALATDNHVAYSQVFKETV
The experiment in a line: TLR7 inhibition reporter assay (HEK-Blue cells, SEAP reporter, gardiquimod stimulation). Conditions: HEK-Blue cells overexpressing human TLR7, SEAP reporter, gardiquimod 7.5 μM. The procedure, abridged: as §1

For `COc1cc(-c2[nH]c3ccc(C4CCCN(C5COC5)C4)cc3c2C(C)C)cn2ncnc12` (stereo not drawn) [Example 237], the figures for the IC50 against human TLR8, at human TLR9 and at human TLR7 were 38 nM, 21200 nM and 15 nM, respectively.
On the same counts, the results for `COc1cc(-c2[nH]c3ccc(C4CCCN(C)C4)cc3c2C(C)C)cn2ncnc12` (stereo not drawn) [Example 238] are 0.75 nM, 1240 nM and 0.81 nM.
The like results for `COc1cc(-c2[nH]c3ccc(C4CCCN(C5COC5)C4)cc3c2C(C)C)cn2ncnc12` (stereo not drawn) [Example 240] were, in that order, 4.2 nM, 11600 nM and 5 nM.
Turning to `COc1cc(-c2[nH]c3ccc(C4CCCN(C)C4)cc3c2C(C)C)cn2ncnc12` (stereo not drawn) [Example 241], the values for the IC50 against human TLR8, against human TLR9 and against human TLR7 were 1.9 nM, 1300 nM and 0.53 nM, respectively.
The like results for `COc1cc(-c2[nH]c3ccc(C4CCCN(C5COC5)C4)cc3c2C(C)C)cn2ncnc12` (stereo not drawn) [Example 242] were, in that order, 2.4 nM, 25400 nM and 8 nM.
As for `COc1cc(-c2[nH]c3ccc(C4CCCN(C5COC5)C4)cc3c2C(C)C)cn2ncnc12` (stereo not drawn) [Example 243], the IC50 at human TLR8 worked out at 16 nM; on human TLR9 it was 12900 nM; at human TLR7, 10 nM.
Consider `COc1cc(-c2[nH]c3ccc(C4CCCN(C5CCOCC5)C4)cc3c2C(C)C)cn2ncnc12` (stereo not drawn) [Example 244], for which the half-maximal inhibitory concentration (IC50) against human TLR8 was found to be 0.69 nM; on human TLR9, 1190 nM; on human TLR7, 4 nM.
As for `Cc1cc(-c2[nH]c3ccc(C4CCCN(C5CCN(C(C)C)CC5)C4)cc3c2C(C)C)cc(C)n1` (stereo not drawn) [Example 245], the results for the IC50 against human TLR8, at human TLR9 and at human TLR7 were 19 nM, 419 nM and 104 nM, respectively.
The like results for `Cc1cc(-c2[nH]c3ccc(C4CCCN(Cc5c[nH]c(C)n5)C4)cc3c2C(C)C)cc(C)n1` (stereo not drawn) [Example 246] were, in that order, 16 nM, 56 nM and 10 nM.
As to `Cc1cc(-c2[nH]c3ccc(C4CCCN(Cc5c[nH]c(C)n5)C4)cc3c2C(C)C)cc(C)n1` (stereo not drawn) [Example 247], the IC50 against human TLR8 was determined as 6.9 nM; against human TLR9, 116 nM; on human TLR7, 8 nM.
On to `COc1cc(-c2[nH]c3ccc(C4CCCN(CC(C)(C)O)C4)cc3c2C(C)C)cn2ncnc12` (stereo not drawn) [Example 248, 1-(3-(3-isopropyl-2-(8-methoxy-[1,2,4]triazolo[1,5-a]pyridin-6-yl)-1H-indol-5-yl)piperidin-1-yl)-2-methylpropan-2-ol], for which the 50% inhibitory concentration (IC50) against human TLR8 is 2.1 nM; on human TLR9, 2010 nM; against human TLR7, 0.76 nM.
`COc1cc(-c2[nH]c3ccc(C4CCCN(CC(C)(C)O)C4)cc3c2C(C)C)cn2ncnc12` (stereo not drawn) [Example 249]: the figures for the IC50 on human TLR8, against human TLR9 and on human TLR7 were 1.2 nM, 2330 nM and 2 nM, respectively.
Turning to `COCCN1CCCC(c2ccc3[nH]c(-c4cc(OC)c5ncnn5c4)c(C(C)C)c3c2)C1` (stereo not drawn) [Example 251, 6-(3-isopropyl-5-(1-(2-methoxyethyl)piperidin-3-yl)-1H-indol-2-yl)-8-methoxy-[1,2,4]triazolo[1,5-a]pyridine], the figures for the IC50 on human TLR8, against human TLR9 and at human TLR7 were 3.2 nM, 5260 nM and 3 nM, respectively.
In the case of `COc1cc(-c2[nH]c3ccc(C4CCCN(CCS(C)(=O)=O)C4)cc3c2C(C)C)cn2ncnc12` (stereo not drawn) [Example 253], the IC50 is 4.4 nM at human TLR8, 6220 nM on human TLR9 and 5 nM at human TLR7.
Regarding `CNCCN1CCCC(c2ccc3[nH]c(-c4ccc(OC)c(OC)c4)c(C(C)C)c3c2)C1` (stereo not drawn) [Example 254, 2-(3-(2-(3,4-dimethoxyphenyl)-3-isopropyl-1H-indol-5-yl)piperidin-1-yl)-N-methylethanamine], the concentration for half-maximal inhibition (IC50) against human TLR8 was found to be 16 nM; against human TLR9, 742 nM; against human TLR7 it was 107 nM.
On the same counts, the results for `CNCCN1CCCC(c2ccc3[nH]c(-c4ccnc(C)c4)c(C(C)C)c3c2)C1` (stereo not drawn) [Example 255] are 5.2 nM, 157 nM and 19 nM.
The like results for `CNCCN1CCCC(c2ccc3[nH]c(-c4ccnc(C)c4)c(C(C)C)c3c2)C1` (stereo not drawn) [Example 256] were, in that order, 3.2 nM, 611 nM and 226 nM.
Take `Cc1cc(-c2[nH]c3ccc(C4CNC4)cc3c2C(C)C)cn2ncnc12` [Example 257, 6-(5-(azetidin-3-yl)-3-isopropyl-1H-indol-2-yl)-8-methyl-[1,2,4]triazolo[1,5-a]pyridine]: the IC50 came out at 1.9 nM against human TLR8, 760 nM on human TLR9 and 0.44 nM at human TLR7.
For `Cc1cc(-c2[nH]c3ccc(C4CNC4)cc3c2C(C)C)cc(C)n1` [Example 259], the IC50 against human TLR8 amounted to 11 nM; on human TLR9, 700 nM; against human TLR7, 4 nM.

What is called IC50 is the concentration needed to halve the response being measured. A lower IC50 goes with higher potency.
